Source: patent US11976065B2 (CELISTA PHARMACEUTICALS LLC, priority 2020, dated 2024)

Assay: pH of the samples in water, pH probe
Format: physicochemical
Conditions: aqueous sample

CC(C)Cn1cnc2c(N)nc3ccccc3c21 [Imiquimod, 1-(2-methylpropyl)-1H-imidazo[4,5-c]quinolin-4-amine]
pH: 7.10
